Test results: article PMC11262537, “Cell-Penetrating Chaperone Nuc1 for Small- and Large-Molecule Delivery Into Retinal Cells and Tissues” (Investigative Ophthalmology & Visual Science, 2024)
Entries after “also recorded” stand apart in the source; their conditions may differ. Residues, ends and D or L forms follow the SMILES beside them. No end group written: not given here. *: point of attachment. 6FAM = O=C1OC2(c3ccc(O)cc3Oc3cc(O)ccc32)c2cc(C(=O)*)ccc21

How the values were obtained:
[1] = tested on: retinal tissues and cells; assay: Retinal penetration of FAM-labeled peptide after intravitreal injection, fluorescence microscopy of cryosections; assay type: in vivo, C57BL/6J mice; settings: for localization in retinal layers: 1 µg in 1 µL H2O intravitreal, 4 hours postinjection, fluorescence microscopy of cryosections, n = 4 to 5 animals per group
Procedure: Retinal cryosections (14 µm) were rehydrated in phosphate-buffered saline (PBS) for 15 minutes, permeabilized, and blocked with 6% normal goat serum in PBS containing 0.1% Triton-X-100 (or using mouse-on-mouse kit as appropriate) for 45 minutes and incubated overnight in a saturated chamber with the primary antibodies against anti-glutamine synthetase (Müller cells), anti–β-III-tubulin (ganglion cells), anti-rhodopsin (rod cells), anti–S-opsin (cone cells), and anti-PKCα (bipolar cells). Subsequently, sections were washed and incubated with respective secondary antibodies labeled with Alexa Fluor 594 or 488 (Molecular Probes, Eugene, OR, USA) or Cy3 (Jackson Immunoresearch, Westgrove, PA, USA). Slides were mounted in antifade medium containing DAPI (Vectashield-DAPI; Vector Laboratories, Burlingame, CA, USA) to counterstain nuclei, and images were captured with a Leica TCS SPE microscope (Leica Microsystems, Wetzlar, Germany).
(§1) In order to determine whether Nuc1 peptide was toxic to the murine retina, we injected various amounts (0.5–4.0 µg) 5′ 6-FAM–labeled Nuc1 into the vitreous of 6-week-old C57BL/6J mice and processed the retinas as described below. We determined that 1 µg Nuc1 was not toxic to the retina, whereas 4.0 µg Nuc1 generated some toxicity (data not shown). Based on these observations, we selected 1 µg as an optimal working dose. We then injected 1 µg 5′ 6-FAM–labeled Nuc1 suspended in 1 µL H2O or 1 µg 5′ 6-FAM-SC (a scrambled peptide) into the vitreous of 6-week-old C57BL/6J mice. Four hours postinjection, eyes were enucleated, fixed, and cryosectioned and the retina was imaged by fluorescence microscopy. […] We conclude that Nuc1 peptide penetrates the retina and labels a variety of retinal cells following intravitreal injection.

[2] = tested on: murine retinal tissue explants; assay: Retinal explant culture uptake with or without imipramine (macropinocytosis); assay type: cell-based, C57BL6/J mice; settings: 37°C, confocal imaging, n = 3–4 explants per group; for uptake into retinal explants in presence of imipramine: 1 µg/mL in DMEM/F12 + 5 µM imipramine, 4 hours; for uptake into retinal explants: 1 µg/mL in DMEM/F12, 4 hours, 5% CO2, absence of imipramine
Procedure: After careful removal, the eyeballs from C57BL6/J mice were transferred to a Petri dish containing fresh cold Dulbecco's modified Eagle's medium (DMEM). Under a dissecting microscope, the cornea, ocular muscles, and lens were removed and flat mounts prepared via making four incisions from the margin of the eye cup toward the optic nerve. Flat mounts were transferred into six-well plates containing fresh DMEM/F12 mixed with 5′ 6-FAM-Nuc1 or 5′ 6-FAM-SC (1 µg/mL) in presence or absence of 5 µM imipramine (Sigma). After 4 hours of culturing in a cell culture incubator (37°C, 5% CO2), retinas were washed twice with PBS and fixed with 4% PFA for 15 minutes. Thereafter, the tissue sections were soaked in 15% to 30% sucrose at 4°C overnight. Retinal explants were frozen into Tissue-Tek cryomolds (Torrence, CA, USA) and the 14-µm sections were imaged under a Leica (Teaneck, NJ, USA) TCS-SPE confocal microscope.
Macropinocytosis is a specialized pathway of endocytosis characterized by the nonspecific internalization of extracellular fluids, solutes, and membrane in large endocytic vesicles known as macropinosomes. Macropinocytosis plays a role in a variety of physiological processes, including nutrient sensing, recycling of plasma proteins, and signaling.[42]^,[43] Molecules that bind HSPGs can stimulate bulk cellular uptake via macropinocytosis.[19] […] In order to test the hypothesis that Nuc1 can be taken up by cells via macropinocytosis, murine retinal tissue explants were incubated in 5′ 6-FAM-Nuc1 (1 µg/mL) in the presence or absence of 5 µM imipramine. After 4 hours, explants were processed for cryosectioning as above. We found robust uptake of 5′ 6-FAM-Nuc1 within 4 hours of incubation (Fig. 7). […] We conclude that Nuc1 peptide penetrates retinal cells in part by the process of macropinocytosis.

murine retina = assay: Retinal toxicity of Nuc1 after intravitreal injection; assay type: in vivo, C57BL/6J mice; settings: for toxicity to the retina: 6-week-old C57BL/6J mice, data not shown
Procedure: as §1
Furthermore, while sequences used in the design of Nuc1 were selected based on prior studies of nucleolin and heparan-sulfate proteoglycan-binding sequences, detailed analysis of mechanism(s) of uptake is ongoing in our laboratory. Such studies face the challenge of limitations associated with retinal cell culture with a bona fide extracellular matrix.

Compound	localization in retinal layers [1]	retinal cell types targeted ([1]; 1 µg intravitreal, 4 hours, costaining for tubulin, PKC, rod opsin, glutamine synthase)	uptake into retinal explants in presence of imipramine [2]	uptake into retinal explants [2]	toxicity to the retina (murine retina; 1 µg 5′ 6-FAM-labeled Nuc1 intravitreal)	toxicity to the retina (murine retina; 4.0 µg 5′ 6-FAM-labeled Nuc1 intravitreal)	obvious toxicity associated with Nuc1 (murine retina; short-term (4 hours) or longer-term (2 weeks) proof-of-concept studies)
CC[C@H](C)[C@H](NC(=O)[C@H](CO)NC(=O)[C@H](C)NC(=O)c1ccc2c(c1)C1(OC2=O)c2ccc(O)cc2Oc2cc(O)ccc21)C(=O)N[C@@H](CCCCN)C(=O)N[C@H](C(=O)N[C@@H](C)C(=O)N[C@H](C(=O)N[C@@H](CO)C(=O)N[C@@H](C)C(=O)NCC(=O)NCC(=O)N[C@@H](CC(=O)O)C(=O)N[C@@H](CCCCN)C(=O)N1CCC[C@H]1C(=O)N[C@@H](CCCNC(=N)N)C(=O)N[C@@H](CCCNC(=N)N)C(=O)O)C(C)C)C(C)C [5′ 6-FAM-Nuc1] (6FAM-ASIKVAVSAGGDKPRR-OH)	abundantly localized to all layers of the retina; also recorded: localizes to all layers of the retina	ganglion cells, bipolar cells, photoreceptors, and Müller cells	significantly reduced uptake	robust uptake	–	–	–
CC[C@H](C)[C@H](NC(=O)[C@H](CO)NC(=O)[C@H](C)NC(=O)[C@H](CCCNC(=N)N)NC(=O)c1ccc2c(c1)C1(OC2=O)c2ccc(O)cc2Oc2cc(O)ccc21)C(=O)N[C@@H](C)C(=O)N[C@@H](CCCCN)C(=O)N[C@@H](C)C(=O)N[C@@H](CCCNC(=N)N)C(=O)N[C@@H](CC(=O)O)C(=O)N[C@H](C(=O)N[C@@H](CCCCN)C(=O)NCC(=O)N[C@H](C(=O)N1CCC[C@H]1C(=O)NCC(=O)N[C@@H](CO)C(=O)O)C(C)C)C(C)C [5′ 6-FAM-SC, reference compound] (6FAM-RASIAKARDVKGVPGS-OH)	accumulated primarily at the inner limiting membrane and was very weakly visible in the retina; also recorded: does not significantly penetrate the retina	–	marginal reduction in uptake	did not show any significant uptake	–	–	–
ASIKVAVSAGGDKPRR [Nuc1]	–	–	–	–	not toxic	some toxicity	did not observe any obvious toxicity
